Measurements taken from ChEMBL document CHEMBL5131384, “Design, synthesis, and biological evaluation of indole-based hydroxamic acid derivatives as histone deacetylase inhibitors” (Eur J Med Chem, 2022).
Active and inactive are the calls of the source. No cut-off for these calls is given here.

Assays:
[1] = biological target: T1, Protein deacetylase HDAC6 (Homo sapiens, UniProt Q9UBN7); assay: Inhibition of HDAC6 (unknown origin) using Boc-Lys(Ac)-AMC as substrate incubated for 60 mins by fluorescence plate reader assay
T1 sequence (Q9UBN7 whole entry): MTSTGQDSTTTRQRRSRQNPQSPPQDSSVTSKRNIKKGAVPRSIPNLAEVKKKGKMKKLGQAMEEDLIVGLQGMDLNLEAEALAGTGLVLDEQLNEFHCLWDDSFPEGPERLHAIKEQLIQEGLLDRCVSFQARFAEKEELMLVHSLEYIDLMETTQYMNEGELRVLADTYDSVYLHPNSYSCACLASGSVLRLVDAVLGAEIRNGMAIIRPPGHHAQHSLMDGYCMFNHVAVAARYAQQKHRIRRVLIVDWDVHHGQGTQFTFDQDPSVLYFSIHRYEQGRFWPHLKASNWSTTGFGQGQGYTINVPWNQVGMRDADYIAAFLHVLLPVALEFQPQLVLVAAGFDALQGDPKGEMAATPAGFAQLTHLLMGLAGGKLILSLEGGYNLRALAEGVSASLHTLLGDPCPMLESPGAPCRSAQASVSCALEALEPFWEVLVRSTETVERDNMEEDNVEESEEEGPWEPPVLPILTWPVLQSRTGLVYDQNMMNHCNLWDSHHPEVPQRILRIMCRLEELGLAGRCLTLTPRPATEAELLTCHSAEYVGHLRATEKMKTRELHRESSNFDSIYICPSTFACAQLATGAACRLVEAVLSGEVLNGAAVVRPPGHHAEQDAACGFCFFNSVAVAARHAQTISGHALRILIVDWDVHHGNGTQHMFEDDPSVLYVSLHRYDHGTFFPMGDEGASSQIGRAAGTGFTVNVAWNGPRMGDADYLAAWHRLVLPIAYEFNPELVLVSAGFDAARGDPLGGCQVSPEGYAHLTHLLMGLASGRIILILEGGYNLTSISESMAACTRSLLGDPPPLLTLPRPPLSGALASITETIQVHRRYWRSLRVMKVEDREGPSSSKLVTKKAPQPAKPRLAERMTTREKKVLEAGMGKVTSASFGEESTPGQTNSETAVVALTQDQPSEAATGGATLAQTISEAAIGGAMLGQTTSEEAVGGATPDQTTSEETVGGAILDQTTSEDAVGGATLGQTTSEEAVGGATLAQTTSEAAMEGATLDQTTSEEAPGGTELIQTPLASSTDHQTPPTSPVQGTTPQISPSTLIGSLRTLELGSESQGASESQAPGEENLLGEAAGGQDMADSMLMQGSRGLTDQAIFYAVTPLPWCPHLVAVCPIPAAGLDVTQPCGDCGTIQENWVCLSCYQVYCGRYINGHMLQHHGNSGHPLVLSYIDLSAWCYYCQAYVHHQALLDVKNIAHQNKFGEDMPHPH

Histone deacetylase 1 = Histone deacetylase 1 (Homo sapiens, UniProt Q13547); assay: Inhibition of HDAC1 (unknown origin) using Boc-Lys(Ac)-AMC as substrate incubated for 60 mins by fluorescence plate reader assay
SGC-7901 = assay: Antiproliferative activity against human SGC-7901 cells assessed as reduction in cell viability incubated for 72 hrs by WST-8 assay; type: functional, cell-based; details: SGC-7901, 72 h
HL-60 = assay: Antiproliferative activity against human HL-60 cells assessed as reduction in cell viability incubated for 72 hrs by WST-8 assay; type: functional, cell-based; details: HL-60, 72 h
MDA-MB-231 = assay: Antiproliferative activity against human MDA-MB-231 cells assessed as reduction in cell viability incubated for 72 hrs by WST-8 assay; type: functional, cell-based; details: MDA-MB-231, 72 h
HCT-116 [2] = assay: Antiproliferative activity against human HCT-116 cells assessed as reduction in cell viability incubated for 72 hrs by WST-8 assay; type: functional, cell-based; details: HCT-116, 72 h
A549 = assay: Antiproliferative activity against human A549 cells assessed as reduction in cell viability incubated for 72 hrs by WST-8 assay; type: functional, cell-based; details: A549, 72 h
HCT-116 [3] = assay: Induction of cell cycle arrest in human HCT-116 cells assessed as decrease in accumulation of cells at S phase at 1 uM incubated for 24 hrs by flow cytometry analysis; type: functional, cell-based
HCT-116 [4] = assay: Induction of apoptosis in human HCT-116 cells assessed as early apoptotic cells at 1 uM incubated for 48 hrs by Annexin V-FITC/propidium iodide staining-based flow cytometric analysis (reference value: 1.73 %); type: functional
HCT-116 [5] = assay: Induction of apoptosis in human HCT-116 cells assessed as late apoptotic cells at 1 uM incubated for 48 hrs by Annexin V-FITC/propidium iodide staining-based flow cytometric analysis (reference value: 5.80 %); type: functional
HCT-116 [6] = assay: Induction of cell cycle arrest in human HCT-116 cells assessed as increase in accumulation of cells at G2/M phase at 1 uM incubated for 24 hrs by flow cytometry analysis; type: functional, cell-based

Chain of Histone deacetylase 1 (Q13547 whole entry): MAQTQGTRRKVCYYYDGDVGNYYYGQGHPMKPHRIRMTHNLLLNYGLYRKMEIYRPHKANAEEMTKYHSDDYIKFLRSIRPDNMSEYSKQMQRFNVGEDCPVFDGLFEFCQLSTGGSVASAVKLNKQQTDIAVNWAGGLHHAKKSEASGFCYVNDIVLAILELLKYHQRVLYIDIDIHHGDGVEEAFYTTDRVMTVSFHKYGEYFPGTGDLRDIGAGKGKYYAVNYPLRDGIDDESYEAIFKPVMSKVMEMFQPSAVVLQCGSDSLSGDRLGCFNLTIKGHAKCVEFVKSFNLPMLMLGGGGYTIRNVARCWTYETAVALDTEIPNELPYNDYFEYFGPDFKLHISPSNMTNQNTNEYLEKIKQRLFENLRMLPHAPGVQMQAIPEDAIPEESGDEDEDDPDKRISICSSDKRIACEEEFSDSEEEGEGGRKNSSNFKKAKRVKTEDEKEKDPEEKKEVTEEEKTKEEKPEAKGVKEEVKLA

Row | IC50 (HCT-116 [2]) | Structure (SMILES) | IC50 [1] | IC50 (Histone deacetylase 1) | other results
1 | – | O=C(CCCCCn1cc(C(=O)NC2C3CC4CC(C3)CC2C4)c2ccccc21)NO (configuration not stated) | 10.4 nM | 67.4 nM | –
2 | 13800 nM | O=C(CCCCCCn1c(C(=O)NC2C3CC4CC(C3)CC2C4)cc2ccccc21)NO (configuration not stated) | 2.43 nM | 2.1 nM | IC50 (SGC-7901): 6800 nM; IC50 (HL-60): 5740 nM; IC50 (MDA-MB-231): 42600 nM; IC50 (A549): 60800 nM
3 | 630 nM | O=C(CCCCCCn1c(C(=O)NC2C3CC4CC(C3)CC2C4)cc2ccc(Br)cc21)NO (configuration not stated) | 4.64 nM | 3.16 nM | IC50 (SGC-7901): 180 nM; IC50 (HL-60): 510 nM; IC50 (MDA-MB-231): 1770 nM; IC50 (A549): 920 nM
4 | – | O=C(/C=C/c1ccc(Cn2cc(C(=O)NC3C4CC5CC(C4)CC3C5)c3ccccc32)cc1)NO (configuration not stated) | 73.3 nM | 143 nM | –
5 | – | O=C(CCCCCCn1cc(C(=O)N2CCOCC2)c2ccccc21)NO | 7.59 nM | 8.95 nM | –
6 | – | O=C(CCCCCCn1c(C(=O)NC2C3CC4CC(C3)CC2C4)nc2ccccc21)NO (configuration not stated) | 5.25 nM | 1.68 nM | –
7 | 3590 nM | O=C(CCCCCCC(=O)Nc1ccccc1)NO [VORINOSTAT] | – | – | Activity (HCT-116 [3]): Active; Activity (HCT-116 [4]): 3.2%; Activity (HCT-116 [5]): 36.2%; Activity (HCT-116 [6]): Active
8 | – | O=C(NC1C2CC3CC(C2)CC1C3)c1cn(CCCCCCCS)c2ccccc12 (configuration not stated) | 232 nM | 188 nM | –
9 | – | O=C(NC1C2CC3CC(C2)CC1C3)c1cn(CCCCCCS)c2ccccc12 (configuration not stated) | 19 nM | 169 nM | –
10 | – | O=C(NO)c1ccc(Cn2cc(C(=O)NC3C4CC5CC(C4)CC3C5)c3ccccc32)cc1 (configuration not stated) | 5.29 nM | 115 nM | –
11 | – | O=C(CCCCn1cc(C(=O)NC2C3CC4CC(C3)CC2C4)c2ccccc21)NO (configuration not stated) | 39.9 nM | 53.6 nM | –

Row | Structure (SMILES) | IC50 (HCT-116 [2]) | IC50 [1] | IC50 (Histone deacetylase 1) | other results
12 | O=C(CCCCCCn1cc(C(=O)NC2CCCCCCC2)c2ccccc21)NO | > 100000 nM | 1.8 nM | 1.31 nM | IC50 (SGC-7901): 67000 nM; IC50 (HL-60): 21500 nM; IC50 (MDA-MB-231): > 100000 nM; IC50 (A549): > 100000 nM
